Data from patent US20120258938A1, “Enzymatic Production or Chemical Synthesis and Uses for 5,7-Dienes and UVB Conversion Products Thereof” (priority 2008, published 2012).
Each block holds one compound with its values, some of them ahead of it.

Tests used:
[1] = system: immortalized normal epidermal melanocytes (PIG1 line); test: Proliferation of PIG1 melanocytes; format: cell-based; details: PIG1, 72 h
[2] = system: AbC1 hamster melanoma cells; test: Proliferation (DNA synthesis) of AbC1; format: cell-based; details: AbC1, 72 h
Protocol: To measure DNA synthesis, keratinocytes, melanoma or prostate cancer cells were plated in 96-well plates. After overnight incubation tested compounds were added to the medium to achieve final concentrations 10^−7-10^−10 [M]. 100 μl of medium per well containing vitamin D3 compound was added to the cells. After 36 hours of incubation [3H]-thymidine (specific activity 88.0 Ci/mmol; Amersham Biosciences, Picataway, N.Y., USA) was added at 1 μCi/mL medium. After 12 hours, media were discarded, cells detached with trypsin and harvested on a glass fiber filter (Packard, Meriden, Calif., USA). 3H-radioactivity was measured with a beta counter (Direct Beta-Counter Matrix 9600; Packard).
HaCaT keratinocytes were an incubated for 48 h (FIG. 48A) or 72 h (FIG. 48B) in the presence of graded concentrations of 20(OH)D2 and/or 1,25(OH)2D3. […] Data are shown as mean±SD (n 3); *, p<0.05; **, p<0.01.

type I collagen = test: Type I collagen ELISA, TGF-b1 stimulated skin fibroblasts; format: cell-based; details: human skin fibroblasts
Protocol: Additional studies using human skin fibroblasts were performed employing a type I collagen specific ELISA Chondrex, and real time RT PCR to quantitate type I collagen protein and Col1A1 mRNA expression in culture of human fibroblast stimulated by TGF-b1 in the presence and absence of 17,20S(OH)2pD3 and/or 20(OH)D3. These studies confirmed that Type I collagen protein production that was induced by TGF-b1 and that Col1A1 mRNA that was induced by TGF-b1 were suppressed by these analogues (FIGS. 44A-44B).

TNFα = test: LPS-induced TNFα production by PBMC; format: cell-based; details: normal human PBMC, LPS (10 pg/ml), 10^−8M
MG-63 = test: Flow cytometry cell cycle and subG1, MG-63; format: cell-based, human; details: MG-63, 24 h
Protocol: (§1) MD-MBA-231, MG-63, PC-3, and WM164 cells were seeded into Petri dishes and then incubated for 24 h with 20-hydroxycholecalciferol in DMEM medium containing 5% FBS. Then cells were fixed, DNA stained and samples read with flow cytometer as described (7). Data was analyzed with Cell Quest (BD Biosciences). Cell cycle phases were assessed in viable cell populations and subG1 contents were calculated within whole cell population.

MD-MBA-231 = test: Flow cytometry cell cycle and subG1, MD-MBA-231; format: cell-based, human; details: MD-MBA-231, 24 h
Protocol: as §1

rat CYP24 = molecular target: T1, rat CYP24 (Rattus norvegicus, UniProt Q09128); test: Metabolism by rat CYP24 in phospholipid vesicles
T1 sequence (Q09128 36-514): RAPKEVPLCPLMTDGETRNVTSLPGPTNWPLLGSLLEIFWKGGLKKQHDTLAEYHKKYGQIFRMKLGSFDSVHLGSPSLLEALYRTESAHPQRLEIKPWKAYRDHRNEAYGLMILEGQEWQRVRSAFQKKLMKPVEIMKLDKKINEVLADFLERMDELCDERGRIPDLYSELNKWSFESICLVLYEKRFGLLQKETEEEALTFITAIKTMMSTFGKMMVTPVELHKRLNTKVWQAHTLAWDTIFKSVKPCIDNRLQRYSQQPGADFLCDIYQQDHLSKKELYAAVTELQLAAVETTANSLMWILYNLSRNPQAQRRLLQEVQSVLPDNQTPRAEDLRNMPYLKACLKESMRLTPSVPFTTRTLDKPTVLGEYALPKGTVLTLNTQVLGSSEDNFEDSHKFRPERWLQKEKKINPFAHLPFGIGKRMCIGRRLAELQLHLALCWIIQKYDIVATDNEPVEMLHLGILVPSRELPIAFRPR
Protocol: Samples (typically 0.25-1.0 mL) were incubated at 37° C., with shaking, then reactions terminated by the addition of 2.5 mL ice-cold dichloromethane and vortexing. After phase separation aided by centrifugation, the lower organic phase was retained and the upper aqueous phase was extracted twice more with 2.5 mL aliquots of dichloromethane. The dichloromethane was removed under nitrogen and the residual sample dissolved in solvent for HPLC analysis.
To test enzymatic metabolism of 20S(OH)D3 and 20R(OH)D3, the substrates were incorporated into phospholipid vesicles with the ratio of substrate to phospholipid being 0.025 mol/mol phospholipid. Vesicles were incubated with 2 μM bovine CYP11A1 or 0.06 μM human CYP27B1 for up to 10 min. To test enzymatic metabolism of 20(OH)D3 in CYP24, the substrate was incorporated into phospholipids vesicles with 0.15-0.5 μM CYP24. To test enzymatic metabolism of 20(OH)D3 in CYP27A1, purified CYP27A1 was preincubated with the vesicles for 6 min at 37° C. Adrenodoxin was added last to initiate the reaction. For kinetic experiments, the incubations were typically 0.5 mL and were carried out over the initial linear period of the reaction (10 min for vitamin D3 and cholesterol and 30 min for 20(OH)D3).

[3] = system: PC3 human prostate cancer cells; test: Soft agar colony formation, PC3 prostate cancer; format: cell-based; details: PC3, dose dependent
Protocol: Growth and survival of prostate cancer cells (PC3) and melanoma cells SKMEL 188 and AbC1 was determined by following their ability to form colonies in soft agar. Cells growing in monolayer culture were trypsinized and resuspended (1,000 cells/well) in 0.25 ml medium containing 0.4% agarose and 5% charcoal stripped serum (HyClone).
Cell suspensions were added to 0.8% agar layer in 24 well plates. Compounds were added from ethanol stocks (100 μM) to final concentrations of 0.1 nM or 10 nM, in 100 μL media. Each condition was tested in quadruplicate. An ethanol solvent control (amount of ethanol equivalent to test) as well as a media-only control was included in the assay. Cells were allowed to grow at 37° with 5% CO2 over two weeks with secosteroids in fresh media (100 μL) being added after every 72 h. Soft agar colonies were scored and stained with 0.5 mg/ml MTT reagent (Promega), 500 μL/well after two weeks. Colonies were then counted under the microscope and number of units was calculated as number of colonies formed divided by the number of cells seeded×100.

Structure (SMILES): C=C1/C(=C\C=C2/CCC[C@]3(C)[C@@H]([C@H](C)CCCC(C)(C)O)CC[C@@H]23)C[C@@H](O)C[C@@H]1O [1α,25-dihydroxycholecalciferol, (5Z,7E)-9,10-secocholesta-5,7,10(19)-triene-1α,3β,25-triol, reference compound]
- proliferation [1]: Dose dependent inhibition of the proliferation
- proliferation [2]: Dose dependent inhibition of the proliferation

- kcat (rat CYP24; phospholipid vesicles): 10.8±0.8 mol/min/mol CYP24
- kcat/Km lower than for 1,25(OH)2D3 (rat CYP24; phospholipid vesicles): 24 fold
- kcat/Km lower than that for 25(OH)D3 (rat CYP24; phospholipid vesicles): 17 fold
Structure (SMILES): C=C1CC[C@H](O)C/C1=C/C=C1\CCC[C@@]2(C)[C@H]1CC[C@@H]2[C@@](C)(O)CCCC(C)C [20(OH)D3, (5Z,7E)-9,10-secocholesta-5,7,10(19)-triene-3β,20-diol]
- TGF-b1 induced Type I collagen protein production (ELISA) (type I collagen): suppressed
- TNFα production (TNFα): 2609 ± 1961 pg/mL
- G0/G1 of viable cells (MG-63): 52%
- G2/M of viable cells (MG-63): 15
- S of viable cells (MG-63): 33%
- Viable Cells (MG-63): 18
- subG1 (MG-63; whole cell population): 82
- G0/G1 of viable cells (MD-MBA-231): 47%
- G2/M of viable cells (MD-MBA-231): 10
- S of viable cells (MD-MBA-231): 43%
- Viable Cells (MD-MBA-231): 8
- subG1 (MD-MBA-231; whole cell population): 92
- Km (rat CYP24): 0.028±0.007 mol substrate/mol phospholipid
- kcat/Km (rat CYP24): 386 min^−1(mol substrate/mol phospholipid)^−1

Structure (SMILES): C=C1CC[C@H](O)C/C1=C/C=C1\CCC[C@]2(C)[C@@H](C(C)=O)CC[C@@H]12 [pD3, (5Z,7E)-3β-hydroxy-9,10-secopregna-5,7,10(19)-trien-20-one]
- colony formation on soft agar [3]: suppress colony formation on soft agar
